{"source": "patent US20110159080A1", "about": "“COMPOSITION COMPRISING LIPOSOME-ENTRAPPED DOXORUBICIN AND METHODS OF ADMINISTRATION” (priority 2008, published 2011)", "origin": "cited, not measured here", "key": {"[1]": {"tested_on": "recurrent stage III or IV ovarian cancer"}, "[2]": {"tested_on": "recurrent ovarian cancer"}, "[3]": {"tested_on": "primary or secondary platinum-resistant ovarian cancer", "conditions": "bevacizumab 15 mg/kg every 21 days"}, "[4]": {"tested_on": "xenotransplant models of colon cancer", "conditions": "nude (athymic) mice"}, "[5]": {"tested_on": "persistent or recurrent epithelial ovarian cancer"}, "[6]": {"tested_on": "platinum resistant advanced ovarian carcinoma", "conditions": "human, in vivo"}}}
{"compound": "N.N.O=C([O-])C1(C(=O)[O-])CCC1.[Pt+2]", "note": "[carboplatin]", "values": [{"measurement": "response rate", "setting": "[1]; DOXIL 30 mg/m^2 plus carboplatin AUC 5 or carboplatin alone AUC 5, every 4 weeks, p=0.02", "value": 32, "unit": "%"}, {"measurement": "estimated median PFS", "setting": "[1]; every 4 weeks", "value": 8, "unit": "months"}, {"measurement": "estimated median overall survival", "setting": "[1]; every 4 weeks, p=0.02", "value": 18, "unit": "months"}]}
{"compound": "CC[C@@]1(O)C(=O)OCc2c1cc1n(c2=O)Cc2cc3c(CN(C)C)c(O)ccc3nc2-1", "note": "[topotecan]", "values": [{"measurement": "toxicity profile", "setting": "[2]; DOXIL 50 mg/m^2 every 4 weeks, topotecan 1.5 mg/m^2/day for 5 days every 3 weeks", "value": "significant myelosuppression and alopecia"}, {"measurement": "median OS", "setting": "[2]; subset with platinum-sensitive disease, p=0.008", "value": 71.1, "unit": "weeks"}, {"measurement": "median PFS", "setting": "[2]; subset with platinum-sensitive disease, p=0.037", "value": 23.3, "unit": "weeks"}]}
{"compound": "bevacizumab: recombinant humanized monoclonal IgG1 antibody that binds to and inhibits human vascular endothelial growth factor (VEGF)", "values": [{"measurement": "6-month PFS rate", "setting": "[3]", "value": 27, "unit": "%"}, {"measurement": "response rate", "setting": "[3]", "value": 16, "unit": "%"}, {"measurement": "effect on metastatic disease progression", "setting": "[4]", "value": "inhibition of metastatic disease progression"}, {"measurement": "effect on microvascular growth", "setting": "[4]", "value": "reduction in microvascular growth"}, {"measurement": "complete responses (number of subjects)", "setting": "[5]; 62 eligible subjects", "value": "two"}, {"measurement": "subjects surviving progression free for at least 6 months", "setting": "[5]; 62 eligible subjects", "value": 40.3, "unit": "%"}, {"measurement": "subjects with clinical response", "setting": "[5]; bevacizumab 15 mg/kg IV every 21 days, 62 eligible subjects", "value": 21.0, "unit": "%"}, {"measurement": "Grade 3 adverse events: GI (number)", "setting": "[5]; in vivo", "value": 3}, {"measurement": "Grade 3 adverse events: coagulation (number)", "setting": "[5]; in vivo", "value": 1}, {"measurement": "Grade 3 adverse events: constitutional (number)", "setting": "[5]; in vivo", "value": 1}, {"measurement": "Grade 3 adverse events: dyspnea (number)", "setting": "[5]; in vivo", "value": 1}, {"measurement": "Grade 3 adverse events: hematologic (number)", "setting": "[5]; in vivo", "value": 1}, {"measurement": "Grade 3 adverse events: hepatic (number)", "setting": "[5]; in vivo", "value": 1}, {"measurement": "Grade 3 adverse events: hypertension (number)", "setting": "[5]; in vivo", "value": 6}, {"measurement": "Grade 3 adverse events: pain (number)", "setting": "[5]; in vivo", "value": 3}, {"measurement": "Grade 3 adverse events: thromboembolism (number)", "setting": "[5]; in vivo", "value": 1}, {"measurement": "Grade 4 adverse events: proteinuria (number)", "setting": "[5]; in vivo", "value": 1}, {"measurement": "Grade 4 adverse events: pulmonary embolus (number)", "setting": "[5]; in vivo", "value": 1}, {"measurement": "Grade 4 adverse events: vomiting and constipation (number)", "setting": "[5]; in vivo", "value": 1}, {"measurement": "median PFS", "setting": "[5]; in vivo", "value": 4.7, "unit": "months"}, {"measurement": "median overall survival", "setting": "[5]; in vivo", "value": 17, "unit": "months"}, {"measurement": "median response duration", "setting": "[5]; in vivo", "value": 10, "unit": "months"}, {"measurement": "cases of perforation", "setting": "[6]", "value": "no cases of perforation"}]}
